Experimental data from patent publication US12054480B2, “Compounds for treating cannabinoid toxicity and acute cannabinoid overdose” (MAKScientific, LLC, priority 2020, dated 2024).

Experiments:
male CD-1 mice [1] = test: Observation chamber test - CB1 antagonist mediated side effects; type: in vivo, mouse; details: FIG. 1; i.v., 60-minute observation; compared with rimonabant (i.p.)
Procedure: Observation chambers were used to score (count/duration) individual mouse intrinsic behavior. Male CD-1 mice (n=8) were placed in the chambers for 30 minutes to acclimate to the environment. Subjects were dosed i.v with a compound of Formula I-XI along with vehicle control groups and behavior are recorded over a 60-minute period and the results were analyzed. For statistical analysis, measurements were sampled in 5 min bins at the 5-10, 15-20, 25-30, 35-40, 45-50 and 55-60 min time intervals. The scratching response/frequency is defined based on well-established observations. Data was compared with that of rimonabant (i.p). The vehicle control group (vehicle (i.v.)) were included accordingly.

male CD-1 mice [2] = test: Reversal of CB1 SPC agonist induced neurotoxicity; type: in vivo, mouse; details: FIGS. 2A-2B; induced by suprapharmacological doses of CB1 SPC agonist AM2201; i.v., 30 min observation
[3] = cited from earlier work

SMILES: CCOC(=O)c1ccc(-c2c(CC)c(C(=O)NN3CCCCC3)nn2-c2ccc(Cl)cc2Cl)cc1 [Compound 1, Ethyl 4-(1-(2,4-Dichlorophenyl)-4-Ethyl-3-(Piperidin-1-Ylcarbamoyl)-1H-Pyrazol-5-Yl)Benzoate]
- side effects (scratching episodes) (male CD-1 mice [1]): lesser side effects (scratching episodes) as compared to rimonabant
- neurotoxic effects: convulsions (male CD-1 mice [2]): blocks
- neurotoxic effects: tremors (male CD-1 mice [2]): blocks

SMILES: CCCCCc1cc(O)c2c(c1)OC(C)(C)[C@@H]1CCC(C)=C[C@@H]21 [THC]
- onset ([3]; humans): 30 to 60 min
- time of peak effects ([3]; humans): 2 to 4 h
- apparent plasma elimination half-life ([3]; in some cases): > 96 h
